Experimental data from patent US8283361B2 (AstraZeneca AB, priority 2008, dated 2012).

Target: S. aureus GyrB ATPase (Staphylococcus aureus, UniProt P0A0K8)
Test: biochemical
Settings: compound at 1 μM; one value per test if tested more than once; read-out: % Inhibition of S. aureus GyrB ATPase
Method in brief: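 IC50 values derive from 10-point titrations of compound (in DMSO). Phosphate formed from 250 μM ATP was quantified by acidic molybdate/malachite green after quenching.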

S. aureus GyrB ATPase, sequence (P0A0K8 whole entry): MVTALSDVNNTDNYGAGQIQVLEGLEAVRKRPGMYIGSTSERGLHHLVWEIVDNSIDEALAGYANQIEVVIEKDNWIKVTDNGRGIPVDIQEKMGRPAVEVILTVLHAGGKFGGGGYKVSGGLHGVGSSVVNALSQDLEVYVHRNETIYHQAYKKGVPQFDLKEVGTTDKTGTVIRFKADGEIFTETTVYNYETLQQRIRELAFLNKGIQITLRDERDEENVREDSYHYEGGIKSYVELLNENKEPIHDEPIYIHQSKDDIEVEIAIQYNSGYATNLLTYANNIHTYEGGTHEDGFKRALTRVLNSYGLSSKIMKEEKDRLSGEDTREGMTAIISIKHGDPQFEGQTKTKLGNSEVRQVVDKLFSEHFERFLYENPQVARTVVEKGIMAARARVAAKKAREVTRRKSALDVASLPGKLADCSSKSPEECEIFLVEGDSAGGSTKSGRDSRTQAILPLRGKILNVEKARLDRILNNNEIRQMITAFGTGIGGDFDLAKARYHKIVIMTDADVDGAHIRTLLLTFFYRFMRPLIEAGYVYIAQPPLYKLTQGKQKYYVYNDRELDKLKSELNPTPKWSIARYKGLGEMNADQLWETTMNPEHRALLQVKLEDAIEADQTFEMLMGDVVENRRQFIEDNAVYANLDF
S. aureus GyrB ATPase, sequence (P0AES4 whole entry, further chain): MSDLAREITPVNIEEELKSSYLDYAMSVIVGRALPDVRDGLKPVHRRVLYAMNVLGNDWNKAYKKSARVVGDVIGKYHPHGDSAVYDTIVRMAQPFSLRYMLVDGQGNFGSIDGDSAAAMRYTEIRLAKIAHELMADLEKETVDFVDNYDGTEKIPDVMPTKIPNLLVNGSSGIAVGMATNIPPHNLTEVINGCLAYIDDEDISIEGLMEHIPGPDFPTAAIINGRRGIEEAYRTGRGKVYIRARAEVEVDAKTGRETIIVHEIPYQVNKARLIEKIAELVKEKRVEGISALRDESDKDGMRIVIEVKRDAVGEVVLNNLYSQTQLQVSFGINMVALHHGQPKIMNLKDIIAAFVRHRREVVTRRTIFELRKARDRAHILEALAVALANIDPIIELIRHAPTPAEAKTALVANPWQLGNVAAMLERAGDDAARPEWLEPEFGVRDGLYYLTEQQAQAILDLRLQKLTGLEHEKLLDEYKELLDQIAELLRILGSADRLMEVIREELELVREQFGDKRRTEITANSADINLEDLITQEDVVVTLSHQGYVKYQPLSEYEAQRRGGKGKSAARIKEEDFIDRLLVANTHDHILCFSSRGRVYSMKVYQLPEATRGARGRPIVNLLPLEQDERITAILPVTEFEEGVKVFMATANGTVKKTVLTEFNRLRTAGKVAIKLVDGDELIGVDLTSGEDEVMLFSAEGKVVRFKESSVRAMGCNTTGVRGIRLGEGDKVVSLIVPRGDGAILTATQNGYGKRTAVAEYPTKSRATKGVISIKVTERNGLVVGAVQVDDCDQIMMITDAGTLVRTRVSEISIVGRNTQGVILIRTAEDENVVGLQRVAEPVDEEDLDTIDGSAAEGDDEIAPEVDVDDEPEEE

First: CCNC(=O)Nc1cc(-c2nc(C(F)(F)F)cs2)c(-c2ccc3c(c2)c(=O)c(C(=O)O)cn3C2CCCN(C)C2)cn1 (stereo not shown) [Example 311, 6-(6-(3-ethylureido)-4-(4-(trifluoromethyl)thiazol-2-yl)pyridin-3-yl)-1-(1-methylpiperidin-3-yl)-4-oxo-1,4-dihydroquinoline-3-carboxylic acid]
Second: CCNC(=O)Nc1cc(-c2nc(C(F)(F)F)cs2)c(-c2ccc3c(c2)c(=O)c(C(=O)O)cn3CC2CCCN(C)C2)cn1 (stereo not shown) [Example 313, 6-(6-(3-ethylureido)-4-(4-(trifluoromethyl)thiazol-2-yl)pyridin-3-yl)-1-((1-methylpiperidin-3-yl)methyl)-4-oxo-1,4-dihydroquinoline-3-carboxylic acid]
The inhibition at 1 µM of the first is lower: 100% for the first, 103% for the second.

Compared with CCNC(=O)Nc1cc(-c2nc(C(F)(F)F)cs2)c(-c2ccc3c(c2)c(=O)c(C(=O)O)cn3CCC2CCN(C)CC2)cn1 [Example 89, 6-(6-(3-ethylureido)-4-(4-(trifluoromethyl)thiazol-2-yl)pyridin-3-yl)-1-(2-(1-methylpiperidin-4-yl)ethyl)-4-oxo-1,4-dihydroquinoline-3-carboxylic acid], CC(C)NC(=O)Nc1cc(-c2nc(C(F)(F)F)cs2)c(-c2ccc3c(c2)c(=O)c(C(=O)NCCO)cn3CCC2CCN(C)CC2)cn1 [Example 216, N-(2-hydroxyethyl)-6-(6-(3-isopropylureido)-4-(4-(trifluoromethyl)thiazol-2-yl)pyridin-3-yl)-1-(2-(1-methylpiperidin-4-yl)ethyl)-4-oxo-1,4-dihydroquinoline-3-carboxamide] is higher in inhibition at 1 µM: 91% for the first, 109% for the second.

Compared with CCCn1cc(C(=O)NCCN(C)C)c(=O)c2ccc(-c3cnc(NC(=O)NCC)cc3-c3nc(C(F)(F)F)cs3)cc21 [Example 350, N-[2-(dimethylamino)ethyl]-7-{6-[(ethylcarbamoyl)amino]-4-[4-(trifluoromethyl)-1,3-thiazol-2-yl]pyridin-3-yl}-4-oxo-1-propyl-1,4-dihydroquinoline-3-carboxamide], CCCn1cc(C(=O)NCCCO)c(=O)c2ccc(-c3cnc(NC(=O)NCC)cc3-c3nc(C(F)(F)F)cs3)cc21 [Example 349, 7-{6-[(ethylcarbamoyl)amino]-4-[4-(trifluoromethyl)-1,3-thiazol-2-yl]pyridin-3-yl}-N-(3-hydroxypropyl)-4-oxo-1-propyl-1,4-dihydroquinoline-3-carboxamide] is higher in inhibition at 1 µM: 96% for the first, 108% for the second.

First: CCNC(=O)Nc1cc(-c2nc(C(F)(F)F)cs2)c(-c2ccc3c(c2)c(=O)c(C(=O)O)cn3C2CCCN(Cc3ccncc3)C2)cn1 (stereo not shown) [Example 309, 6-(6-(3-ethylureido)-4-(4-(trifluoromethyl)thiazol-2-yl)pyridin-3-yl)-4-oxo-1-(1-(pyridin-4-ylmethyl)piperidin-3-yl)-1,4-dihydroquinoline-3-carboxylic acid]
Second: CCNC(=O)Nc1cc(-c2nc(C(F)(F)F)cs2)c(-c2ccc3c(c2)c(=O)c(C(=O)O)cn3C2CCCCC2)cn1 [Example 322, 1-Cyclohexyl-6-(6-(3-ethylureido)-4-(4-(trifluoro-methyl)thiazol-2-yl)pyridin-3-yl)-4-oxo-1,4-dihydroquinoline-3-carboxylic acid]
The inhibition at 1 µM of the first is higher: 109% for the first, 96% for the second.

CC(C)NC(=O)Nc1cc(-c2nc(C(F)(F)F)cs2)c(-c2ccc3c(c2)c(=O)c(C(=O)NCCN(C)C)cn3CCC2CCN(C)CC2)cn1 [Example 226] and CC(C)NC(=O)Nc1cc(-c2nc(C(F)(F)F)cs2)c(-c2ccc3c(c2)c(=O)c(C(=O)NCCO)cn3CCN2CCN(C)CC2)cn1 [Example 212] are the same in inhibition at 1 µM: 94% for the first, 94% for the second.

Going from CCNC(=O)Nc1cc(-c2nc(C(F)(F)F)cs2)c(-c2ccc3c(c2)c(=O)c(C(=O)O)cn3[C@H](C)CO)cn1 [Example 72, (R)-6-(6-(3-ethylureido)-4-(4-(trifluoromethyl)thiazol-2-yl)pyridin-3-yl)-1-(1-hydroxypropan-2-yl)-4-oxo-1,4-dihydroquinoline-3-carboxylic acid] to CCNC(=O)Nc1cc(-c2nc(C(F)(F)F)cs2)c(-c2ccc3c(c2)c(=O)c(C(=O)O)cn3[C@H](CO)[C@@H](C)O)cn1 [Example 73, 1-((2R,3R)-1,3-dihydroxybutan-2-yl)-6-(6-(3-ethylureido)-4-(4-(trifluoromethyl)thiazol-2-yl)pyridin-3-yl)-4-oxo-1,4-dihydroquinoline-3-carboxylic acid], the inhibition at 1 µM rises from 103% to 105%.

Compared with CCNC(=O)Nc1cc(-c2nc(C(F)(F)F)cs2)c(-c2ccc3c(c2)c(=O)c(C(=O)O)cn3CCCOC)cn1 [Example 12, 6-(6-(3-ethylureido)-4-(4-(trifluoromethyl)thiazol-2-yl)pyridin-3-yl)-1-(3-methoxypropyl)-4-oxo-1,4-dihydroquinoline-3-carboxylic acid], CCNC(=O)Nc1cc(-c2nc(C(F)(F)F)cs2)c(-c2ccc3c(c2)c(=O)c(C(=O)N2CCNCC2)cn3CCN(C)C)cn1 [Example 158, 1-(5-(1-(2-(dimethylamino)ethyl)-4-oxo-3-(piperazine-1-carbonyl)-1,4-dihydroquinolin-6-yl)-4-(4-(trifluoromethyl)thiazol-2-yl)pyridin-2-yl)-3-ethylurea] is higher in inhibition at 1 µM: 93% for the first, 106% for the second.

Going from CCNC(=O)Nc1cc(-c2nc(C(F)(F)F)cs2)c(-c2ccc3c(=O)c(C(=O)NCCN4CCN(C)CC4)cn(CC4CC4)c3c2)cn1 [Example 379, 1-(Cyclopropylmethyl)-7-{6-[(ethylcarbamoyl)amino]-4-[4-(trifluoromethyl)-1,3-thiazol-2-yl]pyridin-3-yl}-N-[2-(4-methylpiperazin-1-yl)ethyl]-4-oxo-1,4-dihydroquinoline-3-carboxamide] to CCNC(=O)Nc1cc(-c2nc(C(F)(F)F)cs2)c(-c2ccc3c(=O)c(C(=O)NCCCO)cn(CC(C)C)c3c2)cn1 [Example 343, 7-{6-[(ethylcarbamoyl)amino]-4-[4-(trifluoromethyl)-1,3-thiazol-2-yl]pyridin-3-yl}-N-(3-hydroxypropyl)-1-(2-methylpropyl)-4-oxo-1,4-dihydroquinoline-3-carboxamide], the inhibition at 1 µM rises from 97% to 98%.

First: CCNC(=O)Nc1cc(-c2nc(-c3ccccc3)cs2)c(-c2ccc3c(=O)c(C(=O)NC)cn(CC)c3c2)cn1 [Example 39, 1-ethyl-7-(6-(3-ethylureido)-4-(4-phenylthiazol-2-yl)pyridin-3-yl)-N-methyl-4-oxo-1,4-dihydroquinoline-3-carboxamide]
Second: CCNC(=O)Nc1cc(-c2nc(C(F)(F)F)cs2)c(-c2ccc3c(c2)c(=O)c(C(=O)N2CCN(C(C)=O)CC2)cn3CCN(C)C)cn1 [Example 162, 1-(5-(3-(4-acetylpiperazine-1-carbonyl)-1-(2-(dimethylamino)ethyl)-4-oxo-1,4-dihydroquinolin-6-yl)-4-(4-(trifluoromethyl)thiazol-2-yl)pyridin-2-yl)-3-ethylurea]
The inhibition at 1 µM of the first is lower: 101% for the first, 106% for the second.

In the case of CCCNC(=O)Nc1cc(-c2nc(C(F)(F)F)cs2)c(-c2ccc3c(c2)c(=O)c(C(=O)N2CCN(C(C)=O)CC2)cn3CCN(C)C)cn1 [Example 160, 1-(5-(3-(4-acetylpiperazine-1-carbonyl)-1-(2-(dimethylamino)ethyl)-4-oxo-1,4-dihydroquinolin-6-yl)-4-(4-(trifluoromethyl)thiazol-2-yl)pyridin-2-yl)-3-propylurea], the inhibition at 1 µM is reported as 103%.
